# From paper PMC5761330 (ACS chemical biology, 2017)
# Experiments:
# [1] = tested on: CMV-Luc; assay: CMV-Luc counter-screen in HEK293 cells; format: cell-based; details: increasing concentrations
# [2] = target: Pax5 (Homo sapiens, UniProt Q02548); assay: PRS4-Luc reporter activation by Pax5 in HEK293 cells; format: cell-based; details: dose response
# [3] = target: Pax8 (Homo sapiens, UniProt Q06710); assay: PRS4-Luc reporter activation by Pax8 in HEK293 cells; format: cell-based; details: dose response
# [4] = tested on: BRE-Luc (P-Smad mediated transactivation); assay: BMP dependent luciferase reporter; format: cell-based; details: HEK293 cells, in the presence of BMP4, increasing amounts
# [5] = target: Pax2 (Mus musculus, UniProt P32114); assay: PRS4-EGFP reporter, Western blot of EGFP; format: cell-based; details: PRS4-EGFP cells, increasing concentrations
# [6] = target: recombinant Pax2 paired domain (amino acids 1–170) / PRS oligo (Mus musculus, UniProt P32114); assay: Electrophoretic mobility shift assay; format: biochemical; details: EMSA
# [7] = tested on: E11.5 kidney rudiments; assay: Embryonic kidney organ culture, branching morphogenesis; parameters: species or system mouse; details: 48 h, highest dose
# [8] = tested on: E11.5 lung rudiments; assay: Embryonic lung organ culture, branching morphogenesis; parameters: species or system mouse; details: 48 h, increasing concentrations
# [9] = tested on: kidney organ cultures; assay: Pax2 target gene expression in kidney organ cultures; parameters: species or system mouse; details: kidney organ culture, 48 h
# [10] = tested on: RCC111, TOV112D and ES-2 cells; assay: Cell viability; format: cell-based; details: 48 h, 12.5 and 25 µM, Pax2 positive cells
# [11] = tested on: 22Rv1, PC-3 and SK-OV-3 cells; assay: Cell viability; format: cell-based; details: 48 h, 12.5 and 25 µM, Pax2 negative cells
# [12] = tested on: RCC111, TOV112D and ES-2 cells; assay: Phospho-histone H3 Western blot, Pax2 positive cancer cell lines; format: cell-based; details: increasing amounts
# [13] = tested on: 22Rv1, PC-3 and SK-OV-3 cells; assay: Phospho-histone H3 Western blot, Pax2 negative cancer cell lines; format: cell-based; details: increasing amounts
# recombinant Pax2 paired domain (amino acids 1–170) / PRS oligo, sequence (P32114 1-170): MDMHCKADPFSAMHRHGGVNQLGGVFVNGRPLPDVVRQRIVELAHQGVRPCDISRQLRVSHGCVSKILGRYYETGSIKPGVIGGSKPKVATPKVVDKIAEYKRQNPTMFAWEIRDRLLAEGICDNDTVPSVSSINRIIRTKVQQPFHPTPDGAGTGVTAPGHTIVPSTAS
# Pax5, sequence (Q02548 whole entry, species assumed): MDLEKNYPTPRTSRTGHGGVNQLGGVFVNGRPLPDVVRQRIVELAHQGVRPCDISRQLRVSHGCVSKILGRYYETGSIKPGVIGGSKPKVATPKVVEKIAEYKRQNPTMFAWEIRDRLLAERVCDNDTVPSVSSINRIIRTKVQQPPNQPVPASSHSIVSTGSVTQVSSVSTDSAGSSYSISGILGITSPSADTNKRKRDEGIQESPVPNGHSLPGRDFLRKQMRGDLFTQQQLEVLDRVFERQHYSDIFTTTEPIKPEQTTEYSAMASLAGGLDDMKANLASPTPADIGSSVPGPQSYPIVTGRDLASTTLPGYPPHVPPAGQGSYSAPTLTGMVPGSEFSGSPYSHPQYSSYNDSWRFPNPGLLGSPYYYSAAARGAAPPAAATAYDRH
# Pax8, sequence (Q06710 whole entry, species assumed): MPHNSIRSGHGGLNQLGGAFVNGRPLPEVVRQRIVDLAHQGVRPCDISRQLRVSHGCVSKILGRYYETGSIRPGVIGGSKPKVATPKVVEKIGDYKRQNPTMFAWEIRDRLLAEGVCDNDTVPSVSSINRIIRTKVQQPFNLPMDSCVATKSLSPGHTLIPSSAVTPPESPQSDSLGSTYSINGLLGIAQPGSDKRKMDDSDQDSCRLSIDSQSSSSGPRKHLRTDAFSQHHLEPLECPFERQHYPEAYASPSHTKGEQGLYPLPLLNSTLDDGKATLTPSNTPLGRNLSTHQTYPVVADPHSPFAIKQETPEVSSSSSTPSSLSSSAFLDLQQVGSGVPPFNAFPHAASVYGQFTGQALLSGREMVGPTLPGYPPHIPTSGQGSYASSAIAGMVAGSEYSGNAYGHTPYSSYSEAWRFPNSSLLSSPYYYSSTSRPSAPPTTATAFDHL
# Pax2, sequence (P32114 1-391 isoform P32114-2): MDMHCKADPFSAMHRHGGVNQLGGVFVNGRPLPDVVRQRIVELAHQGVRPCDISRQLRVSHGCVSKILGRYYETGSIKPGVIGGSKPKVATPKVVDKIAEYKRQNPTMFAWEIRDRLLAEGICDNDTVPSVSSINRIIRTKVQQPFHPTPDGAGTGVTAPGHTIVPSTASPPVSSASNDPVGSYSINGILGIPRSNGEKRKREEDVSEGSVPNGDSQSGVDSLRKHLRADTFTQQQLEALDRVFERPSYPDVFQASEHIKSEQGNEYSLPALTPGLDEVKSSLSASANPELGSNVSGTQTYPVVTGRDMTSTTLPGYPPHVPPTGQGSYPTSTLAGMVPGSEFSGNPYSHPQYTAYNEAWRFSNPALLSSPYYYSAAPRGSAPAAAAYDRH
smiles,measurement,setting,value
COc1ccccc1C(=O)Nc1ccc(C(=O)Nc2ccccc2C(=O)O)cc1 [EG1],Inhibition of CMV-Luc in the counter-screen,[1],no inhibitory effect
same,Inhibition of PRS4-Luc activation by Pax5,[2],able to inhibit
same,Inhibition of PRS4-Luc activation by Pax8,[3],able to inhibit
same,Effect on BRE-Luc reporter activity,[4],unaffected
same,Inhibition of Pax2 mediated expression of EGFP,[5],capable of inhibiting Pax2 mediated expression of EGFP
same,Inhibition of Pax2-DNA binding,[6]; 10 µM,Significant inhibition
same,Inhibition of Pax2-DNA binding,[6]; 100 µM,near complete inhibition
same,Inhibition of branching morphogenesis,[7],up to 75%
same,Effect on branching morphogenesis,[8],no change in branching morphogenesis
same,"Cited1 and HNF4a expression, qRT-PCR",[9],clear reduction
same,"Cited1 expression, whole mount in situ hybridization",[9],dramatic reduction in expression levels
same,"FoxD1, Msx1 and Twist2 (stromal genes) expression, qRT-PCR",[9],increased levels
same,Cell viability,[10],significant decrease in cell viability
same,Cell viability,[11],none of the Pax2 negative cells were affected
same,Levels of phospho–histone H3 (P–H3),[12],decreased levels of P–H3
same,Levels of phospho–histone H3 (P–H3),[13],unchanged
